# Source: US10800792B2, “Inhibitors of Bruton's tyrosine kinase and method of their use” (JANSSEN PHARMACEUTICA NV, priority 2015, dated 2020)
# Target: unphosphorylated-BTK kinase domain (UP-BTK), GST-tagged human BTK (389-659aa) (Homo sapiens (Human), UniProt Q06187)
# Test: BTK kinase Lanthascreen binding assay
# Settings: unphosphorylated-BTK kinase domain, 50 nM Tracer 236, 60 minutes; pIC50 = negative log of the IC50 in molar
# Procedure, shortened: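 Lanthascreen competition binding; test compound vs fluorescent tracer on unphosphorylated BTK. Output: pIC50 (−log IC50, M).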
# Chain of unphosphorylated-BTK kinase domain (UP-BTK), GST-tagged human BTK (389-659aa) (Q06187 389-659): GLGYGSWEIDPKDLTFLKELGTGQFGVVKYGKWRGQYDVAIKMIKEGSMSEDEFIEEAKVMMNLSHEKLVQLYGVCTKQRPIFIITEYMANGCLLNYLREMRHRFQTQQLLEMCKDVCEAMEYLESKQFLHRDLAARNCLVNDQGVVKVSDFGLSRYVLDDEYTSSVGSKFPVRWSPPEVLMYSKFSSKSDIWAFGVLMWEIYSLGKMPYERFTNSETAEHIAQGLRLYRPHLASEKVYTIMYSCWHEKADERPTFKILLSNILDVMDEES
row,BTK_I_binding pIC50,SMILES
1,<5,"Cc1cc(Oc2ccccc2)nnc1N1C(=O)Nc2c(C(=O)N[C@@H]3CCCN(C)C3)sc3nccc1c23 [Example 350, (R)-5-(4-Methyl-6-phenoxypyridazin-3-yl)-N-(1-methylpiperidin-3-yl)-4-oxo-4,5-dihydro-3H-1-thia-3,5,8-triazaacenaphthylene-2-carboxamide]"
2,<5,"C=CC(=O)N1CC[C@@H](NC(=O)c2sc3nccc4c3c2NC(=O)N4c2nnc(Oc3ccccc3)cc2C)C1 [Example 351, (R)—N-(1-Acryloylpyrrolidin-3-yl)-5-(4-methyl-6-phenoxypyridazin-3-yl)-4-oxo-4,5-dihydro-3H-1-thia-3,5,8-triazaacenaphthylene-2-carboxamide]"
3,<5,"Cc1ccccc1N1C(=O)Nc2c(C(=O)N[C@@H]3CCCN(C)C3)sc3nccc1c23 [Example 352, (R)—N-(1-Methylpiperidin-3-yl)-4-oxo-5-(o-tolyl)-4,5-dihydro-3H-1-thia-3,5,8-triazaacenaphthylene-2-carboxamide]"
4,<5,"Cc1cc(Oc2ccncc2)ccc1N1C(=O)Nc2c(C(=O)N[C@@H]3CCCN(C)C3)sc3nccc1c23 [Example 354, (R)-5-(2-Methyl-4-(pyridin-4-yloxy)phenyl)-N-(1-methylpiperidin-3-yl)-4-oxo-4,5-dihydro-3H-1-thia-3,5,8-triazaacenaphthylene-2-carboxamide]"
5,<5,"CN(C)c1cccc(N2C(=O)Nc3c(C(=O)N[C@@H]4CCCNC4)sc4nccc2c34)c1 [Example 356, (R)-5-(3-(Dimethylamino)phenyl)-4-oxo-N-(piperidin-3-yl)-4,5-dihydro-3H-1-thia-3,5,8-triazaacenaphthylene-2-carboxamide]"
6,5.1,"C=CC(=O)N1CCC[C@@H](NC(=O)c2sc3nccc4c3c2NC(=O)N4C(C)C)C1 [Example 357, (R)—N-(1-Acryloylpiperidin-3-yl)-5-isopropyl-4-oxo-4,5-dihydro-3H-1-thia-3,5,8-triazaacenaphthylene-2-carboxamide]"
7,5.2,"C=CC(=O)N1CCC[C@@H](NC(=O)c2sc3nccc4c3c2NC(=O)N4c2cccnc2C)C1 [Example 358, (R)—N-(1-Acryloylpiperidin-3-yl)-5-(2-methylpyridin-3-yl)-4-oxo-4,5-dihydro-3H-1-thia-3,5,8-triazaacenaphthylene-2-carboxamide]"
8,<5,"Cc1ncccc1N1C(=O)Nc2c(C(=O)N[C@@H]3CCCNC3)sc3nccc1c23 [Example 359, (R)-5-(2-Methylpyridin-3-yl)-4-oxo-N-(piperidin-3-yl)-4,5-dihydro-3H-1-thia-3,5,8-triazaacenaphthylene-2-carboxamide]"
9,6.7,"C=CC(=O)N1CCC[C@@H](NC(=O)c2sc3nccc4c3c2NC(=O)N4c2ccc(Cl)c(Cl)c2)C1 [Example 360, (R)—N-(1-Acryloylpiperidin-3-yl)-5-(3,4-dichlorophenyl)-4-oxo-4,5-dihydro-3H-1-thia-3,5,8-triazaacenaphthylene-2-carboxamide]"
10,<5,"CC(C)N1C(=O)Nc2c(C(=O)N[C@@H]3CCCNC3)sc3nccc1c23 [Example 361, (R)-5-Isopropyl-4-oxo-N-(piperidin-3-yl)-4,5-dihydro-3H-1-thia-3,5,8-triazaacenaphthylene-2-carboxamide]"
11,5.4,"C=CC(=O)N1CCC[C@@H](NC(=O)c2sc3nccc4c3c2NC(=O)N4c2ccc(Cl)c(C(F)(F)F)c2)C1 [Example 362, (R)—N-(1-Acryloylpiperidin-3-yl)-5-(4-chloro-3-(trifluoromethyl)phenyl)-4-oxo-4,5-dihydro-3H-1-thia-3,5,8-triazaacenaphthylene-2-carboxamide]"
12,6.9,"COC(C)(C)CC(=O)N1CCC[C@@H](NC(=O)c2sc3nccc4c3c2NC(=O)N4c2ccc(Oc3ccccc3)cc2C)C1 [Example 363, (R)—N-(1-(3-Methoxy-3-methylbutanoyl)piperidin-3-yl)-5-(2-methyl-4-phenoxyphenyl)-4-oxo-4,5-dihydro-3H-1-thia-3,5,8-triazaacenaphthylene-2-carboxamide]"
13,6.8,"CC(=O)N/C=C\C(=O)N1CCC[C@@H](NC(=O)c2sc3nccc4c3c2NC(=O)N4c2ccc(Oc3ccccc3)cc2C)C1 [Example 364, (R,Z)—N-(1-(3-Acetamidoacryloyl)piperidin-3-yl)-5-(2-methyl-4-phenoxyphenyl)-4-oxo-4,5-dihydro-3H-1-thia-3,5,8-triazaacenaphthylene-2-carboxamide]"
14,7.6,"Cc1cc(Oc2ccccc2)ccc1N1C(=O)Nc2c(C(=O)N[C@@H]3CCN(C(=O)/C=C/CN(C)C)C3)sc3nccc1c23 [Example 368, (R,E)-N-(1-(4-(Dimethylamino)but-2-enoyl)pyrrolidin-3-yl)-5-(2-methyl-4-phenoxyphenyl)-4-oxo-4,5-dihydro-3H-1-thia-3,5,8-triazaacenaphthylene-2-carboxamide]"

# The next lines start with the compound.
row,SMILES,BTK_I_binding pIC50
1,"Cc1cc(OC(C)C)ccc1N1C(=O)Nc2c(C(=O)N[C@@H]3CCCN(C)C3)sc3nccc1c23 [Example 332, (R)-5-(4-Isopropoxy-2-methylphenyl)-N-(1-methylpiperidin-3-yl)-4-oxo-4,5-dihydro-3H-1-thia-3,5,8-triazaacenaphthylene-2-carboxamide]",5.5
2,"CCOc1ccc(N2C(=O)Nc3c(C(=O)N[C@@H]4CCCN(C)C4)sc4nccc2c34)c(C)c1 [Example 333, (R)-5-(4-Ethoxy-2-methylphenyl)-N-(1-methylpiperidin-3-yl)-4-oxo-4,5-dihydro-3H-1-thia-3,5,8-triazaacenaphthylene-2-carboxamide]",5.5
3,"C=CC(=O)N1CCC[C@@H](NC(=O)c2sc3nccc4c3c2NC(=O)N4c2ccc(C(C)(C)C)cc2)C1 [Example 334, (R)—N-(1-Acryloylpiperidin-3-yl)-5-(4-(tert-butyl)phenyl)-4-oxo-4,5-dihydro-3H-1-thia-3,5,8-triazaacenaphthylene-2-carboxamide]",5.5
4,"O=C(N[C@@H]1CCCNC1)c1sc2nccc3c2c1NC(=O)N3c1cccc(Cl)c1 [Example 336, (R)-5-(3-Chlorophenyl)-4-oxo-N-(piperidin-3-yl)-4,5-dihydro-3H-1-thia-3,5,8-triazaacenaphthylene-2-carboxamide]",5.4
5,"C=CC(=O)N1CC[C@@H](NC(=O)c2sc3nccc4c3c2NC(=O)N4c2ccccc2)C1 [Example 337, (R)—N-(1-Acryloylpyrrolidin-3-yl)-4-oxo-5-phenyl-4,5-dihydro-3H-1-thia-3,5,8-triazaacenaphthylene-2-carboxamide]",5.4
6,"Cc1cc(Oc2ccccc2)ccc1N1C(=O)Nc2c(C(=O)N(C)[C@@H]3CCN(C)C3)sc3nccc1c23 [Example 338, (R)—N-Methyl-5-(2-methyl-4-phenoxyphenyl)-N-(1-methylpyrrolidin-3-yl)-4-oxo-4,5-dihydro-3H-1-thia-3,5,8-triazaacenaphthylene-2-carboxamide]",5.4
7,"COc1ccc(N2C(=O)Nc3c(C(=O)N[C@@H]4CCCN(C)C4)sc4nccc2c34)c(C)c1 [Example 340, (R)-5-(4-Methoxy-2-methylphenyl)-N-(1-methylpiperidin-3-yl)-4-oxo-4,5-dihydro-3H-1-thia-3,5,8-triazaacenaphthylene-2-carboxamide]",5.3
8,"O=C(N[C@@H]1CCCNC1)c1sc2nccc3c2c1NC(=O)N3c1ccc(C(F)(F)F)cc1 [Example 341, (R)-4-Oxo-N-(piperidin-3-yl)-5-(4-(trifluoromethyl)phenyl)-4,5-dihydro-3H-1-thia-3,5,8-triazaacenaphthylene-2-carboxamide]",5.2
9,"COc1ccc(N2C(=O)Nc3c(C(=O)N[C@@H]4CCCNC4)sc4nccc2c34)cc1 [Example 342, (R)-5-(4-Methoxyphenyl)-4-oxo-N-(piperidin-3-yl)-4,5-dihydro-3H-1-thia-3,5,8-triazaacenaphthylene-2-carboxamide]",5.2
10,"O=C(N[C@@H]1CCCNC1)c1sc2nccc3c2c1NC(=O)N3c1ccc(-c2ccccc2)cc1 [Example 344, (R)-5-([1,1′-Biphenyl]-4-yl)-4-oxo-N-(piperidin-3-yl)-4,5-dihydro-3H-1-thia-3,5,8-triazaacenaphthylene-2-carboxamide]",5.0
11,"O=C(N[C@@H]1CCCNC1)c1sc2nccc3c2c1NC(=O)N3c1ccc(Cl)c(Cl)c1 [Example 346, (R)-5-(3,4-Dichlorophenyl)-4-oxo-N-(piperidin-3-yl)-4,5-dihydro-3H-1-thia-3,5,8-triazaacenaphthylene-2-carboxamide]",<5
12,"O=C(N[C@@H]1CCCNC1)c1sc2nccc3c2c1NC(=O)N3c1cccc(C(F)(F)F)c1 [Example 347, (R)-4-Oxo-N-(piperidin-3-yl)-5-(3-(trifluoromethyl)phenyl)-4,5-dihydro-3H-1-thia-3,5,8-triazaacenaphthylene-2-carboxamide]",<5
13,"O=C(N[C@@H]1CCCNC1)c1sc2nccc3c2c1NC(=O)N3c1ccccc1 [Example 348, (R)-4-Oxo-5-phenyl-N-(piperidin-3-yl)-4,5-dihydro-3H-1-thia-3,5,8-triazaacenaphthylene-2-carboxamide]",<5
14,"CN1CCC[C@@H](NC(=O)c2sc3nccc4c3c2NC(=O)N4c2ccc(Oc3ccccc3)cc2C(F)(F)F)C1 [Example 349, (R)—N-(1-Methylpiperidin-3-yl)-4-oxo-5-(4-phenoxy-2-(trifluoromethyl)phenyl)-4,5-dihydro-3H-1-thia-3,5,8-triazaacenaphthylene-2-carboxamide]",<5
